Measured values from US7138361B2, “Herbicidal heterocycles” (E. I. du Pont de Nemours and Company, priority 2000, dated 2006).

Key:
Assay type in all cases: in vivo
[1] = system: cocklebur (Xanthium strumarium); test: Test B postemergence; conditions: 13 to 15 days
In short: (§1)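 Pre: seeded pots sprayed, chemical in non-phytotoxic solvent/surfactant mix. Post: plants 2–18 cm, 1–4 leaf, same formulation. Greenhouse 13–15 d; visual % control vs untreated, 0–100 scale.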

[2] = system: Surinam grass (Brachiaria decumbens); test: Test B postemergence; conditions: 13 to 15 days
In short: as §1

[3] = system: crabgrass (Digitaria sanguinalis); test: Test B postemergence; conditions: 13 to 15 days
In short: as §1

[4] = system: velvetleaf (Abutilon theophrasti); test: Test B postemergence; conditions: 13 to 15 days
In short: as §1

[5] = system: morning glory (Ipomoea hederacea); test: Test B postemergence; conditions: 13 to 15 days
In short: as §1

[6] = system: lambsquarters (Chenopodium album); test: Test B postemergence; conditions: 13 to 15 days
In short: as §1

[7] = system: blackgrass (Alopecurus myosuroides); test: Test B postemergence; conditions: 13 to 15 days
In short: as §1

[8] = system: giant foxtail (Setaria faberii); test: Test B postemergence; conditions: 13 to 15 days
In short: as §1

[9] = system: pigweed (Amaranthus retroflexus); test: Test B postemergence; conditions: 13 to 15 days
In short: as §1

[10] = system: duck salad (Heteranthera limosa); test: Test B flooded paddy test; conditions: Rate 1000 g/ha, scale of 0 to 100 where 0 is no effect and 100 is complete control, visually evaluated after 13 to 15 days
In short: (§2)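 2-leaf plants, flooded paddy; greenhouse 13–15 d post-treatment; visual rating vs controls, 0–100 scale (0 = no effect, 100 = complete control); dash = no result.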

[11] = system: smallflower flatsedge (Cyperus difformis); test: Test B flooded paddy test; conditions: Rate 1000 g/ha, scale of 0 to 100 where 0 is no effect and 100 is complete control, visually evaluated after 13 to 15 days
In short: as §2

rice (Oryza saliva) = test: Test B flooded paddy test; conditions: Rate 1000 g/ha, scale of 0 to 100 where 0 is no effect and 100 is complete control, visually evaluated after 13 to 15 days
In short: as §2

[12] = system: barnyardgrass (Echinochloa crus-galli); test: Test B flooded paddy test; conditions: Rate 1000 g/ha, scale of 0 to 100 where 0 is no effect and 100 is complete control, visually evaluated after 13 to 15 days
In short: as §2

kochia (Kochia scoparia) = test: Test C postemergence
In short: (§3)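 Herbicidal effect is a visual 0–100 score (100 = complete control) assigned versus untreated plants, 12 to 14 days after spraying in the greenhouse. Test compounds were applied in a non-phytotoxic, surfactant-containing solvent.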

[13] = system: lambsquarters (Chenopodium album); test: Test C postemergence
In short: as §3

[14] = system: pigweed (Amaranthus retroflexus); test: Test C postemergence
In short: as §3

[15] = Rate 125 g/ha, scale 0 (no effect) to 100 (complete control)
[16] = Rate 500 g/ha, scale 0 to 100, 0 is no effect, 100 is complete control
[17] = Rate 125 g/ha, scale 0 to 100, 0 no effect, 100 complete control
[18] = Rate 250 g/ha, scale 0 to 100 (0 no effect, 100 complete control)
[19] = Rate 500 g/ha, scale 0 to 100 (0 no effect, 100 complete control)

SMILES | Plant response rating, Cocklebur [1, 15] | Plant response rating, Cocklebur [1, 16] | Plant response rating, Surinam grass [2, 15] | Plant response rating, Surinam grass [2, 16] | Plant response rating, Crabgrass [3, 15] | Plant response rating, Crabgrass [3, 16] | Plant response rating, Velvetleaf [4, 15] | Plant response rating, Velvetleaf [4, 16] | Plant response rating, Morningglory [5, 15] | Plant response rating, Morningglory [5, 16] | Plant response rating, Lambsquarters [6, 15] | Plant response rating, Lambsquarters [6, 16] | Plant response rating, Blackgrass [7, 15] | Plant response rating, Blackgrass [7, 16] | Plant response rating, Foxtail, Giant [8, 15] | Plant response rating, Foxtail, Giant [8, 16] | Plant response rating, Pigweed [9, 15] | Plant response rating, Pigweed [9, 16] | Plant response rating, Ducksalad [10] | Plant response rating, Flatsedge [11] | other results
COc1cc(N2CCC(n3ccc(C(C)(C)C)n3)C2=O)ccc1C (centres unmarked) [Compound 42] | 40 | 60 | 0 | 0 | 50 | 80 | 50 | 80 | 60 | 100 | 70 | 100 | 0 | 50 | 50 | 70 | 80 | 100 | 100 | 100 | Plant response rating, Rice (rice (Oryza saliva)): 100; Plant response rating, Barnyardgrass [12]: 100
O=C1C(n2ccc(C3CCCCC3)n2)SCN1c1cccc(OC(F)(F)F)c1 (centres unmarked) [Compound 50] | 0 | 50 | 0 | 0 | 30 | 50 | 0 | 0 | 0 | 0 | 70 | 80 | 0 | 0 | 0 | 50 | 0 | 0 | 100 | 100 | Plant response rating, Rice (rice (Oryza saliva)): 60; Plant response rating, Barnyardgrass [12]: 100
CC(C)(C)c1ccn(C2SCN(c3cccc(OC(F)(F)F)c3)C2=O)n1 (centres unmarked) [Compound 30] | 70 | 70 | 0 | 20 | 50 | 100 | 0 | 0 | 40 | 90 | 90 | 90 | 0 | 20 | 10 | 80 | 100 | 100 | 100 | 100 | Plant response rating, Kochia (kochia (Kochia scoparia); [17]): 70; Plant response rating, Kochia (kochia (Kochia scoparia); [18]): 70; Plant response rating, Kochia (kochia (Kochia scoparia); [19]): 90; Plant response rating, Lambsquarters [13, 17]: 90; Plant response rating, Lambsquarters [13, 18]: 90; Plant response rating, Lambsquarters [13, 19]: 90; Plant response rating, Pigweed [14, 17]: 80; Plant response rating, Pigweed [14, 18]: 90; Plant response rating, Pigweed [14, 19]: 100; Plant response rating, Rice (rice (Oryza saliva)): 90; Plant response rating, Barnyardgrass [12]: 100
CC(C)c1ccn(C2SCN(c3cccc(OC(F)(F)F)c3)C2=O)n1 (centres unmarked) [Compound 31] | 60 | 70 | 0 | 0 | 0 | 40 | 0 | 0 | 10 | 30 | 70 | 80 | 0 | 0 | 0 | 20 | 20 | 60 | 100 | 100 | Plant response rating, Rice (rice (Oryza saliva)): 90; Plant response rating, Barnyardgrass [12]: 100
CCC(C)c1ccn(C2OCN(c3cccc(C(F)(F)F)c3)C2=O)n1 (centres unmarked) [Compound 24] | 20 | 40 | 0 | 50 | 60 | 90 | 0 | 0 | 0 | 40 | 90 | 100 | 0 | 0 | 20 | 80 | 80 | 100 | 100 | 100 | Plant response rating, Rice (rice (Oryza saliva)): 90; Plant response rating, Barnyardgrass [12]: 100
O=C1C(n2ccc(C3CCCCC3)n2)SCN1c1cccc(C(F)(F)F)c1 (centres unmarked) [Compound 52] | 0 | 0 | 0 | 0 | 0 | 0 | 0 | 0 | 0 | 0 | 0 | 0 | 0 | 0 | 0 | 0 | 0 | 0 | 100 | 100 | Plant response rating, Rice (rice (Oryza saliva)): 50; Plant response rating, Barnyardgrass [12]: 100
CCC(C)c1ccn(C2SCN(c3cccc(OC(F)(F)F)c3)C2=O)n1 (centres unmarked) [Compound 32] | 60 | 60 | 0 | 10 | 80 | 100 | 0 | 0 | 20 | 20 | 80 | 90 | 0 | 0 | 0 | 60 | 40 | 60 | 100 | 100 | Plant response rating, Rice (rice (Oryza saliva)): 100; Plant response rating, Barnyardgrass [12]: 100
CC(C)(C)c1ccn(C2CCN(c3cccc(Br)c3)C2=O)n1 (centres unmarked) [Compound 33] | 0 | 10 | 0 | 0 | 0 | 0 | 0 | 0 | 0 | 10 | 70 | 80 | 0 | 0 | 0 | 20 | 70 | 80 | 0 | 0 | Plant response rating, Rice (rice (Oryza saliva)): 0; Plant response rating, Barnyardgrass [12]: 0
